Data taken from patent US20080268044A1, “Novel Process and Formulations” (Glaxo Group Limited, priority 2005, published 2008).

Test: Comparison of salt forms (solubility, stability)
Assay type: physicochemical

stability of salt forms (comparison): less stable than the other salt forms
Structure (SMILES): Cc1cc(F)ccc1-c1nc(NC(CO)CO)nc2c1ccc(=O)n2-c1c(F)cccc1F [sulphate, 8-(2,6-difluorophenyl)-4-(4-fluoro-2-methylphenyl)-2-{[2-hydroxy-1-(hydroxymethyl)ethyl]amino}pyrido[2,3-d]pyrimidin-7(8H)-one]
